Results on 51 compounds are retold here after ChEMBL document CHEMBL1201862, “PubChem BioAssay data set” (2004).

Holding throughout (assay): growth of human tumour cells (NCI), 48 h
The test system of assay [1] is DLD-1.
In assay [2] the test system is DMS-114.
Assay [3] has as its system DMS-273.
For assay [4], the system named is KM-20L2.
Assay [5] deals with LXFL 529.
Assay [6] relates to XF498.
Assay [7] relates to BT-549.
Assay [8] deals with HOP-18.

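Grown in 96-well plates, cells were treated for 48 hours with each compound at five concentrations. Insufficient inhibition: endpoint recorded as highest concentration tested. GI50 marks 50% less growth.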 Active and inactive are the calls of the source. Rule as the data show it: active = GI50 up to about 1.1 µM and inactive = higher.

For `CC(=O)c1ccc(NC(=O)/C(=N\NC(N)=O)C(C#N)CC(C)(C)C=O)cc1` (configuration not stated), the GI50 in assay [1], in assay [2], in assay [3], in assay [4], in assay [5] and in assay [6] was > 100 µM (inactive) in each case.

As to `COc1ccc(C(=O)N=C2N(c3ccccc3)C(=N/c3ccccc3)/C(=N\c3ccccc3)N2c2ccccc2)cc1`, in assay [7], the GI50 was 13.2 µM (inactive).

For the compound `CCCCC1=NNC(=O)C1`, in assay [7], the GI50 is > 100 µM (inactive).

`Cc1ccc(NC(=O)C2C(=O)N(c3ccc(C)c(C)c3)C(=O)/C2=N\NC(N)=O)cc1C` (configuration not stated): the GI50 in assay [1] is > 100 µM (inactive); in assay [2], 56.9 µM (inactive); in assay [8] it was 7.85 µM (inactive); in assay [4] it was > 100 µM (inactive); in assay [5] it was 59.7 µM (inactive); in assay [6] it was > 100 µM (inactive).

For `CN1CCCOC(c2ccc([N+](=O)[O-])cc2)O1` (configuration not stated), the GI50 in assay [7] was > 100 µM (inactive).

Regarding `CCOC(=O)/C(=C/c1ccco1)P(=O)(OCC)OCC`, the GI50 in assay [1], in assay [2], in assay [8], in assay [5] and in assay [6] was > 100 µM (inactive) in each case.

In the case of `CCCCCC(/C=C/[C@@H]1CC(=O)C[C@H]1O[Si](C)(C)C(C)(C)C)OCOCCOC` (some centres not stated), in assay [7], the GI50 was 3.26 µM (inactive).

Consider `CC1=C(C#N)c2nc3ccccc3n2C(=O)C1(C)CCO` (configuration not stated), for which the GI50 in assay [7] is > 100 µM (inactive).

Consider `CC1(C)OC2OC(C(=O)c3ccccc3)C3OC(C)(C)OC3C2O1` (configuration not stated), for which the GI50 in assay [7] is > 100 µM (inactive).

As to `CC(CC(C)[C@H]1CCC2[C@H]3C(CC[C@@]21C)[C@@]1(C)CCC(O)C[C@H]1C[C@@H]3O)C(=O)O` (some centres not stated), the GI50 in assay [7] is > 100 µM (inactive).

Turning to `O=C(OCCN=C1c2ccccc2CCc2ccccc21)c1ccccc1`, the GI50 in assay [7] is > 100 µM (inactive).

As to `CCOC(=O)C(O)(NC(C)=O)C(F)(F)F` (configuration not stated), in assay [7], the GI50 is > 100 µM (inactive).

In the case of `CN(C)/C=C/c1nnnn1-c1ccc(I)cc1`, the GI50 in assay [7] is 22.8 µM (inactive).

With `COc1ccc(-c2c(C(C)=O)c(C)n(C3OC(CO)C(O)C(O)C3O)c(=S)c2C#N)cc1` (configuration not stated), the GI50 in assay [7] was > 100 µM (inactive).

As to `O=C1O[C@H](c2ccc3c(c2)OCO3)[C@H]2CO[C@@H](c3ccc4c(c3)OCO4)[C@@H]12`, the GI50 in assay [7] is > 100 µM (inactive).

Turning to `NC(CO)C(=O)NCC(=O)O` (configuration not stated), the GI50 in assay [7] was > 100 µM (inactive).

As for `COc1ccc(C[C@@H]2OC3(C=CC(=O)CC3Sc3ccccc3)O[C@H]2Cc2ccc(OC)cc2)cc1` (some centres not stated), the GI50 in assay [7] was 0.223 µM (active).

Consider `Cc1ccccc1CN1CC2=C(CCN(Cc3ccccc3)C2=O)N2CCN=C12`, for which, in assay [7], the GI50 is 14.8 µM (inactive).

In the case of `COC(=O)C1=C(C(=O)OC)SC2(S1)C1=C(CCC1)SC(C(=O)OC)=C2C(=O)OC`, in assay [7], the GI50 is 16 µM (inactive).

As for `Cc1nc(O)nc2c1C(NCCCN(C)C)c1cc(Cl)ccc1N2` (configuration not stated), the GI50 in assay [1] was 17.8 µM (inactive); in assay [2], 14.7 µM (inactive); in assay [3], 12.7 µM (inactive); in assay [4] it was 12 µM (inactive); in assay [5], 16.9 µM (inactive); in assay [6], 16.6 µM (inactive).

For the compound `Fc1ccc(Nc2nnc(-c3ccccn3)s2)cc1`, the GI50 in assay [7] was > 100 µM (inactive).

As for `CSc1nncc2[nH]c(C)nc12`, the GI50 in assay [7] is > 100 µM (inactive).

For the compound `O=C1Sc2ccccc2C(=O)N2CCSC12` (configuration not stated), the GI50 in assay [1] is > 100 µM (inactive); in assay [2], > 100 µM (inactive); in assay [3], > 100 µM (inactive); in assay [8] it was 25.6 µM (inactive); in assay [4], > 100 µM (inactive); in assay [5], > 100 µM (inactive).

For the compound `Cc1nc2cc(/N=N/c3c(C)noc3C)ccc2[nH]1`, in assay [7], the GI50 was 22.2 µM (inactive).

As for `CC[C@@]12CCC(=S)N(CCSc3ccccc3)[C@@H]1c1c(n(S(=O)(=O)c3ccc(OC)cc3)c3ccccc13)CC2`, the GI50 in assay [7] was 48.1 µM (inactive).

Turning to `C=CCN1C(=O)/C(=C/c2ccco2)N=C1SC1OC(COC(C)=O)C(OC(C)=O)C(OC(C)=O)C1OC(C)=O` (configuration not stated), the GI50 in assay [7] is > 100 µM (inactive).

For `O=[N+]([O-])C(=C/c1cccc2ccccc12)/C(=C\c1cccc2ccccc12)[N+](=O)[O-]`, the GI50 in assay [7] is 2.05 µM (inactive).

For `N=C1NC(c2ccc(Cl)cc2)=CC(c2cccc(Cl)c2)S1` (configuration not stated), the GI50 in assay [7] was 63.5 µM (inactive).

With `Clc1ccc(Cc2nc3cc(Cl)c(Cl)cc3n2CC2CCCN3CCCCC23)cc1` (configuration not stated), the GI50 in assay [7] is 13.1 µM (inactive).

Consider `CC[C@@H]1CC[C@@H]2[C@H](CC[C@]3(C)[C@@H](OC(C)=O)CC[C@@H]23)[C@H]1COC(C)=O`, for which, in assay [7], the GI50 is 32.1 µM (inactive).

For the compound `CCOC(=O)c1sc2nc(SC)nc3c2c1NCN3C`, the GI50 in assay [7] was 35.7 µM (inactive).

Turning to `CNC(=O)N(CCC#N)CCN(C(=O)NC)c1ccccc1`, the GI50 in assay [7] is > 100 µM (inactive).

Take `CCCCCCCCC/C=C1\CC(CO)(COC(=O)c2ccccc2)OC1=O` (configuration not stated): in assay [7], the GI50 is 21.8 µM (inactive).

With `CCCC(C(=O)Nc1cccc2nc[nH]c12)C(=O)OCC` (configuration not stated), the GI50 in assay [7] is > 100 µM (inactive).

In the case of `COC(=O)CNCC1OC2OC(C)(C)OC2C1N=[N+]=[N-]` (configuration not stated), in assay [7], the GI50 is > 100 µM (inactive).

For `CCn1nc(C)c2c1C(=O)NCC(=O)N2`, in assay [7], the GI50 was > 100 µM (inactive).

With `O=C1OC(c2ccco2)=N/C1=C\c1ccc(Cl)c(Cl)c1`, the GI50 in assay [7] was > 100 µM (inactive).

Take `Cc1nc2c(n1-c1ccccc1)C(=O)c1ccccc1C2=O`: the GI50 in assay [1] is 48.5 µM (inactive); in assay [2], 21.6 µM (inactive); in assay [3], 39.4 µM (inactive).

As for `Oc1cc(-c2ccc(Oc3ccccc3)cc2)nc2cc3c(cc12)OCO3`, the GI50 in assay [1], in assay [2], in assay [3], in assay [4], in assay [5] and in assay [6] was > 100 µM (inactive) in each case.

In the case of `O=C(Nc1ccccc1)N1CC(CN2CCN(c3ccccc3)CC2)OC1=O` (configuration not stated), the GI50 in assay [7] is > 100 µM (inactive).

On to `Cc1ccnc(NC(=S)Nc2ccccc2Cl)c1`, for which the GI50 in assay [7] was > 100 µM (inactive).

As for `c1ccc2c(c1)[nH]c1c2cc[n+]2cc3c(cc12)CCCC3`, in assay [7], the GI50 was 2.76 µM (inactive).

In the case of `CCc1nc(N)c2nc(-c3ccc(C#N)cc3)oc2n1`, the GI50 in assay [7] was > 100 µM (inactive).

As for `CC(C)(C)CC(C)(C)c1cc(O)c(O)c(CN2CCCCC2)c1`, the GI50 in assay [7] was 15.1 µM (inactive).

In the case of `O=C(/C=C/c1ccccc1O)/C=C/c1ccccc1O`, in assay [7], the GI50 is 1.24 µM (inactive).

Take `O=C(O)CCS/C(=C\C(SCCC(=O)O)c1ccc(Cl)cc1)c1ccc(Cl)cc1` (configuration not stated): in assay [7], the GI50 is 30.5 µM (inactive).

On to `O=C1c2ccccc2C2(O)NC(=S)N(c3ccccc3)C12O` (configuration not stated), for which the GI50 in assay [1], in assay [2], in assay [8], in assay [4], in assay [5] and in assay [6] was > 100 µM (inactive) throughout.

`CSc1c(C#N)c(=O)n(N)c2[nH]nc(C)c12`: the GI50 in assay [7] was > 100 µM (inactive).

Regarding `O=C(O)CC(O)(C(=O)O)C(O)C(=O)O` (configuration not stated), the GI50 in assay [7] was > 1000 µM (inactive).

`COC1OC(C(C)O)C2OC(C)(C)OC12` (configuration not stated): in assay [7], the GI50 was > 100 µM (inactive).

`O=C(O)CNCCc1ccccc1`: the GI50 in assay [7] is > 100 µM (inactive).
